Pest or weed control data for ten compounds are collected here from patent US12077503B2, “Substituted cyclic amides and their use as herbicides” (FMC CORPORATION, priority 2015, dated 2024).

Common to all, as to assay: Test A preemergence
What all share (format): in vivo

Assay [1] relates to giant foxtail (Setaria faberii). The settings on record: Setaria faberi, pre-emergence, 240 h; for pest or weed control at 125 g/ha: 125 g ai/ha, preemergence, visual rating after approx. 10 d, 0 to 100 scale where 0 is no effect and 100 is complete control; for pest or weed control at 125 g/ha / pest or weed control at 31 g/ha: read-out: Plant response rating, Foxtail, Giant; for pest or weed control at 500 g/ha: 500 g ai/ha, visual injury vs untreated controls after approximately 10 d, read-out: Foxtail, Giant plant response rating (0 to 100 scale where 0 is no effect and 100 is complete control); for pest or weed control at 500 g/ha / pest or weed control at 31 g/ha: Preemergence; for pest or weed control at 31 g/ha: 31 g ai/ha, 0 to 100 scale (0 no effect, 100 complete control). The procedure, abridged: (§1)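 Each rating is a visual injury score from 0 to 100 given about 10 d after treatment, judged against untreated controls kept alongside in the greenhouse. In loam soil–sand blend, seeds got a preemergence directed soil spray, while postemergence plants were 2 to 10 cm tall at spraying.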

In assay [2] the test system is ragweed (common ragweed, Ambrosia elatior). The note with it: Ambrosia artemisiifolia, pre-emergence, 240 h; for pest or weed control at 125 g/ha: 125 g ai/ha, preemergence, visual rating after approx. 10 d, 0 to 100 scale where 0 is no effect and 100 is complete control; for pest or weed control at 125 g/ha / pest or weed control at 31 g/ha: read-out: Plant response rating, Ragweed; for pest or weed control at 500 g/ha: 500 g ai/ha, visual injury vs untreated controls after approximately 10 d, read-out: Ragweed plant response rating (0 to 100 scale where 0 is no effect and 100 is complete control); for pest or weed control at 500 g/ha / pest or weed control at 31 g/ha: Preemergence; for pest or weed control at 31 g/ha: 31 g ai/ha, 0 to 100 scale (0 no effect, 100 complete control). The procedure, abridged:
as §1

Assay [3] relates to ryegrass, Italian (Italian ryegrass, Lolium multiflorum). The note with it: Lolium multiflorum, pre-emergence, 240 h; for pest or weed control at 125 g/ha: 125 g ai/ha, preemergence, visual rating after approx. 10 d, 0 to 100 scale where 0 is no effect and 100 is complete control; for pest or weed control at 125 g/ha / pest or weed control at 31 g/ha: read-out: Plant response rating, Ryegrass, Italian; for pest or weed control at 500 g/ha: 500 g ai/ha, visual injury vs untreated controls after approximately 10 d, read-out: Ryegrass, Italian plant response rating (0 to 100 scale where 0 is no effect and 100 is complete control); for pest or weed control at 500 g/ha / pest or weed control at 31 g/ha: Preemergence; for pest or weed control at 31 g/ha: 31 g ai/ha, 0 to 100 scale (0 no effect, 100 complete control). The procedure, abridged: as §1

The test system of assay [4] is pigweed (Amaranthus retroflexus). The note with it: Amaranthus retroflexus, pre-emergence, 240 h; for pest or weed control at 125 g/ha: 125 g ai/ha, preemergence, visual rating after approx. 10 d, 0 to 100 scale where 0 is no effect and 100 is complete control; for pest or weed control at 125 g/ha / pest or weed control at 31 g/ha: read-out: Plant response rating, Pigweed; for pest or weed control at 500 g/ha: 500 g ai/ha, visual injury vs untreated controls after approximately 10 d, read-out: Pigweed plant response rating (0 to 100 scale where 0 is no effect and 100 is complete control); for pest or weed control at 500 g/ha / pest or weed control at 31 g/ha: Preemergence; for pest or weed control at 31 g/ha: 31 g ai/ha, 0 to 100 scale (0 no effect, 100 complete control).

The test system of another assay is Kochia (Kochia scoparia). The settings on record: Bassia scoparia, pre-emergence, 240 h; for pest or weed control at 125 g/ha: 125 g ai/ha, preemergence, visual rating after approx. 10 d, 0 to 100 scale where 0 is no effect and 100 is complete control; for pest or weed control at 125 g/ha / pest or weed control at 31 g/ha: read-out: Plant response rating, Kochia; for pest or weed control at 500 g/ha: 500 g ai/ha, visual injury vs untreated controls after approximately 10 d, read-out: Kochia plant response rating (0 to 100 scale where 0 is no effect and 100 is complete control); for pest or weed control at 500 g/ha / pest or weed control at 31 g/ha: Preemergence; for pest or weed control at 31 g/ha: 31 g ai/ha, 0 to 100 scale (0 no effect, 100 complete control). The procedure, abridged:
as §1

Assay [5] concerns barnyardgrass (Echinochloa crus-galli). The note with it: Echinochloa crus-galli, pre-emergence, 240 h; for pest or weed control at 125 g/ha: 125 g ai/ha, preemergence, visual rating after approx. 10 d, 0 to 100 scale where 0 is no effect and 100 is complete control; for pest or weed control at 125 g/ha / pest or weed control at 31 g/ha: read-out: Plant response rating, Barnyardgrass; for pest or weed control at 500 g/ha: 500 g ai/ha, visual injury vs untreated controls after approximately 10 d, read-out: Barnyardgrass plant response rating (0 to 100 scale where 0 is no effect and 100 is complete control); for pest or weed control at 500 g/ha / pest or weed control at 31 g/ha: Preemergence; for pest or weed control at 31 g/ha: 31 g ai/ha, 0 to 100 scale (0 no effect, 100 complete control). The procedure, abridged: as §1

As to `O=C1NC[C@H](c2ccc3c(c2)CCO3)[C@H]1C(=O)Nc1ccccc1F` [Compound 786], the pest or weed control at 125 g/ha in assay [1] is 90%; in assay [2], 0%; in assay [3], 0%; in assay [4] it was 0%; with Kochia (Kochia scoparia) it was 0%; in assay [5] it was 80%. For the same compound, the pest or weed control at 500 g/ha in assay [1] came to 90%; in assay [2] it was 0%; in assay [3] it was 0%; in assay [4], 0%; with Kochia (Kochia scoparia) it was 0%; in assay [5] it was 90%.
For the compound `CN1C[C@H](c2ccc(OC(F)F)cc2)[C@@H](C(=O)Nc2ccccc2S(C)(=O)=O)C1=O` [Compound 788], the pest or weed control at 125 g/ha turned out to be 90% in assay [1]; 80% in assay [2]; 0% in assay [3]; 80% in assay [4]; 80% in the assay on Kochia (Kochia scoparia); 90% in assay [5]. The pest or weed control at 500 g/ha in assay [1] stood at 100%; in assay [2], 90%; in assay [3], 40%; in assay [4] it was 90%; in the assay on Kochia (Kochia scoparia), 80%; in assay [5], 90%.
As to `Cc1cc([C@H]2CN(C)C(=O)[C@@H]2C(=O)Nc2cccc(F)c2F)cc(C)c1C` [Compound 796], the pest or weed control at 125 g/ha in assay [1] came to 90%; in assay [2], 0%; in assay [3], 20%; in assay [4], 40%; with Kochia (Kochia scoparia), 20%; in assay [5] it was 90%. The pest or weed control at 31 g/ha in assay [1] is 90%; in assay [2], 0%; in assay [3], 0%; in assay [4], 20%; with Kochia (Kochia scoparia), 0%; in assay [5], 70%.
`Cc1cc([C@H]2CN(C)C(=O)[C@@H]2C(=O)Nc2ccccc2F)cc(C)c1C` [Compound 797]: the pest or weed control at 125 g/ha in assay [1] stood at 90%; in assay [2], 0%; in assay [3], 50%; in assay [4], 20%; in the assay with Kochia (Kochia scoparia), 20%; in assay [5], 90%. The pest or weed control at 31 g/ha in assay [1] is 90%; in assay [2] it was 0%; in assay [3] it was 0%; in assay [4], 0%; in the assay with Kochia (Kochia scoparia), 0%; in assay [5], 80%.
Regarding `Cc1cc(F)cc([C@H]2CN(C)C(=O)[C@@H]2C(=O)Nc2cccc(F)c2C#N)c1` [Compound 800], the pest or weed control at 125 g/ha in assay [1] turned out to be 90%; in assay [2] it was 0%; in assay [3] it was 40%; in assay [4] it was 20%; with Kochia (Kochia scoparia) it was 0%; in assay [5] it was 90%. Further, the pest or weed control at 31 g/ha is 80% in assay [1]; 0% in assay [2]; 0% in assay [3]; 0% in assay [4]; 0% in the assay with Kochia (Kochia scoparia); 80% in assay [5].
For the compound `Cc1cc(F)cc([C@H]2CN(C)C(=O)[C@@H]2C(=O)Nc2cccc(F)c2C)c1` [Compound 802], the pest or weed control at 125 g/ha is 90% in assay [1]; 60% in assay [2]; 40% in assay [3]; 50% in assay [4]; 50% in the assay with Kochia (Kochia scoparia); 90% in assay [5]. Besides, the pest or weed control at 31 g/ha in assay [1] was 90%; in assay [2] it was 0%; in assay [3] it was 0%; in assay [4] it was 40%; with Kochia (Kochia scoparia), 0%; in assay [5] it was 80%.
As for `CN1C[C@H](c2ccc(C(F)(F)F)c(Br)c2)[C@@H](C(=O)Nc2cccc(F)c2F)C1=O` [Compound 804], the pest or weed control at 125 g/ha came to 80% in assay [1]; 0% in assay [2]; 50% in assay [3]; 60% in assay [4]; 20% in the assay on Kochia (Kochia scoparia); 90% in assay [5]. Moreover, the pest or weed control at 31 g/ha was determined as 70% in assay [1]; 0% in assay [2]; 40% in assay [3]; 0% in assay [4]; 0% with Kochia (Kochia scoparia); 70% in assay [5].
`CN1CC[C@H](c2cccc(OC(F)(F)F)c2)[C@@H](C(=O)Nc2ccccc2C(F)(F)F)C1=O` [Compound 806]: the pest or weed control at 125 g/ha (in assay [1]; in assay [2]; in assay [3]; in assay [4]; with Kochia (Kochia scoparia); in assay [5]) was 0% each time. Further, the pest or weed control at 31 g/ha (in assay [1]; in assay [2]; in assay [3]; in assay [4]; in the assay with Kochia (Kochia scoparia); in assay [5]) was 0% throughout.
In the case of `CN1CC[C@H](c2cccc(OC(F)(F)F)c2)[C@@H](C(=O)Nc2ccc(F)c(F)c2F)C1=O` [Compound 808], the pest or weed control at 125 g/ha in assay [1] turned out to be 90%; in assay [2], 0%; in assay [3], 30%; in assay [4], 0%; in the assay with Kochia (Kochia scoparia), 0%; in assay [5], 100%. Besides, the pest or weed control at 31 g/ha in assay [1] was determined as 70%; in assay [2], 0%; in assay [3] it was 0%; in assay [4], 0%; in the assay on Kochia (Kochia scoparia), 0%; in assay [5] it was 100%.
As for `CSc1ccccc1NC(=O)[C@H]1C(=O)N(C)CC[C@@H]1c1cccc(OC(F)(F)F)c1` [Compound 809], the pest or weed control at 125 g/ha worked out at 20% in assay [1]; 0% in assay [2]; 0% in assay [3]; 0% in assay [4]; 0% with Kochia (Kochia scoparia); 90% in assay [5]. For the same compound, the pest or weed control at 31 g/ha in assay [1] was determined as 0%; in assay [2], 0%; in assay [3], 0%; in assay [4], 0%; in the assay with Kochia (Kochia scoparia), 0%; in assay [5] it was 90%.
